# Data taken from patent publication US11987586B1 (TAKEDA PHARMACEUTICAL COMPANY LIMITED, priority 2022, dated 2024).
# Target: T1, human OX2 receptor (Homo sapiens, UniProt O43614)
# T1 construct: expressed in transfected cells
# T1 sequence (O43614 1-444): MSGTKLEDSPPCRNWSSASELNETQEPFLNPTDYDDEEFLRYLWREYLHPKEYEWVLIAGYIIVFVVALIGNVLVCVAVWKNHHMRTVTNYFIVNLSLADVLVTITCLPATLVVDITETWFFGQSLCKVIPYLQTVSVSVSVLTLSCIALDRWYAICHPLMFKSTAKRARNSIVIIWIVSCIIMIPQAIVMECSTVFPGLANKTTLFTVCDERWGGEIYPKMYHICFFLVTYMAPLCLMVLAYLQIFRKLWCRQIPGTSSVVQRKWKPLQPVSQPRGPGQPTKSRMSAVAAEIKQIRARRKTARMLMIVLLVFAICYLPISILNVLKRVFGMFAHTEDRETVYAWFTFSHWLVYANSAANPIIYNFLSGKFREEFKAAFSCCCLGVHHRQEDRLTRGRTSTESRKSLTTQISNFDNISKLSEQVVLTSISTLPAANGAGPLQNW
# Experiment: Measurement of orexin type 2 receptor agonist activity (calcium fluorescence, Fluo-4, FDSS)
# Assay type: cell-based
# Details: 3 uM test compound; CHO cells expressing human OX2 receptor; DMSO = 0%, 10 nM orexin A (human) = 100%
# Summary of the method: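 Agonist activity (%) was normalised to the response to 10 nM final human orexin A (100%) and to the DMSO vehicle (0%). The response was measured as the Fluo-4 calcium signal, read kinetically over 1 min 40 s after compound addition to Fluo-4/probenecid-loaded stable CHO-K1 clones expressing human OX2 (aa 1-444).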
row,"OX2R agonist activity (3 uM, %) [%]",SMILES
1,100,"Cc1cc(-c2c(F)cccc2F)c2c(-n3cc4n(c3=O)C[C@@H](NS(C)(=O)=O)C4(F)F)noc2c1 [Example 180, N-{(6R)-2-[4-(2,6-difluorophenyl)-6-methyl-1,2-benzoxazol-3-yl]-7,7-difluoro-3-oxo-2,5,6,7-tetrahydro-3H-pyrrolo[1,2-c]imidazol-6-yl}methanesulfonamide]"
2,84,"CCS(=O)(=O)N[C@H]1C[C@H]2CN(c3cnc4cccc(-c5c(F)cccc5F)n34)C(=O)N2C1 [Example 182, N-{(6S,7aS)-2-[5-(2,6-difluorophenyl)imidazo[1,2-a]pyridin-3-yl]-3-oxohexahydro-1H-pyrrolo[1,2-c]imidazol-6-yl}ethanesulfonamide]"
3,101,"Cc1cc2onc(-n3cc4n(c3=O)C[C@@H](NS(C)(=O)=O)C4(F)F)c2c(-c2c(F)cc(F)cc2F)c1F [Example 184, N-{(6R)-7,7-difluoro-2-[5-fluoro-6-methyl-4-(2,4,6-trifluorophenyl)-1,2-benzoxazol-3-yl]-3-oxo-2,5,6,7-tetrahydro-3H-pyrrolo[1,2-c]imidazol-6-yl}methanesulfonamide]"
4,104,"CS(=O)(=O)N[C@@H]1Cn2c(cn(-c3noc4cc(CO)c(F)c(-c5c(F)cc(F)cc5F)c34)c2=O)C1(F)F [Example 185, N-{(6R)-7,7-difluoro-2-[5-fluoro-6-(hydroxymethyl)-4-(2,4,6-trifluorophenyl)-1,2-benzoxazol-3-yl]-3-oxo-2,5,6,7-tetrahydro-3H-pyrrolo[1,2-c]imidazol-6-yl}methanesulfonamide]"
5,101,"Cc1cc2onc(N3C[C@H]4N(C[C@@H](NS(C)(=O)=O)C4(F)F)C3=O)c2c(-c2c(F)cccc2F)c1F [Example 186, N-{(6R,7aR)-2-[4-(2,6-difluorophenyl)-5-fluoro-6-methyl-1,2-benzoxazol-3-yl]-7,7-difluoro-3-oxohexahydro-1H-pyrrolo[1,2-c]imidazol-6-yl}methanesulfonamide]"
6,103,"CCOc1cc(-c2c(F)cc(F)cc2F)c2c(-n3cc4n(c3=O)C[C@@H](NS(C)(=O)=O)C4(F)F)noc2c1 [Example 189, N-{(6R)-2-[6-ethoxy-4-(2,4,6-trifluorophenyl)-1,2-benzoxazol-3-yl]-7,7-difluoro-3-oxo-2,5,6,7-tetrahydro-3H-pyrrolo[1,2-c]imidazol-6-yl}methanesulfonamide]"
7,96,"CCS(=O)(=O)N[C@@H]1Cn2c(cn(-c3noc4nc(C)cc(-c5c(F)cc(F)cc5F)c34)c2=O)C1(F)F [Example 190, N-{(6R)-7,7-difluoro-2-[6-methyl-4-(2,4,6-trifluorophenyl)[1,2]oxazolo[5,4-b]pyridin-3-yl]-3-oxo-2,5,6,7-tetrahydro-3H-pyrrolo[1,2-c]imidazol-6-yl}ethanesulfonamide]"
8,98,"Cc1cc2onc(N3C[C@H]4N(C[C@@H](NS(C)(=O)=O)C4(F)F)C3=O)c2c(-c2c(F)cc(F)cc2F)n1 [Example 191, N-{(6R,7aR)-7,7-difluoro-2-[6-methyl-4-(2,4,6-trifluorophenyl)[1,2]oxazolo[4,5-c]pyridin-3-yl]-3-oxohexahydro-1H-pyrrolo[1,2-c]imidazol-6-yl}methanesulfonamide]"
9,103,"CS(=O)(=O)N[C@@H]1CN2C(=O)N(c3noc4cc(OC(F)F)cc(-c5c(F)cc(F)cc5F)c34)C[C@@H]2C1(F)F [Example 193, N-{(6R,7aR)-2-[6-(difluoromethoxy)-4-(2,4,6-trifluorophenyl)-1,2-benzoxazol-3-yl]-7,7-difluoro-3-oxohexahydro-1H-pyrrolo[1,2-c]imidazol-6-yl}methanesulfonamide]"
10,92,"CCOc1cc(-c2c(F)cccc2F)c2c(-n3cc4n(c3=O)C[C@@H](NS(C)(=O)=O)C4(F)F)noc2c1 [Example 194, N-{(6R)-2-[4-(2,6-difluorophenyl)-6-ethoxy-1,2-benzoxazol-3-yl]-7,7-difluoro-3-oxo-2,5,6,7-tetrahydro-3H-pyrrolo[1,2-c]imidazol-6-yl}methanesulfonamide]"
11,106,CS(=O)(=O)N[C@H]1C[C@H]2CCN(c3noc4cccc(-c5c(F)cc(F)cc5F)c34)C(=O)N2C1 [Example 195]
12,106,"Cc1cc2onc(-n3cc4n(c3=O)C[C@@H](NS(C)(=O)=O)C4(F)F)c2c(-c2c(F)cccc2F)n1 [Example 196, N-{(6R)-2-[4-(2,6-difluorophenyl)-6-methyl[1,2]oxazolo[4,5-c]pyridin-3-yl]-7,7-difluoro-3-oxo-2,5,6,7-tetrahydro-3H-pyrrolo[1,2-c]imidazol-6-yl}methanesulfonamide]"
13,115,"CS(=O)(=O)N[C@@H]1Cn2c(cn(-c3noc4nc(C5CC5)cc(-c5c(F)cccc5F)c34)c2=O)C1(F)F [Example 197, N-{(6R)-2-[6-cyclopropyl-4-(2,6-difluorophenyl)[1,2]oxazolo[5,4-b]pyridin-3-yl]-7,7-difluoro-3-oxo-2,5,6,7-tetrahydro-3H-pyrrolo[1,2-c]imidazol-6-yl}methanesulfonamide]"
14,112,"CCS(=O)(=O)N[C@@H]1Cn2c(cn(-c3noc4cc(C)nc(-c5c(F)cc(F)cc5F)c34)c2=O)C1(F)F [Example 198, N-{(6R)-7,7-difluoro-2-[6-methyl-4-(2,4,6-trifluorophenyl)[1,2]oxazolo[4,5-c]pyridin-3-yl]-3-oxo-2,5,6,7-tetrahydro-3H-pyrrolo[1,2-c]imidazol-6-yl}ethanesulfonamide]"
15,105,"CCOc1cc(-c2c(F)cccc2F)c2c(N3CC[C@H]4N(C[C@@H](NS(C)(=O)=O)C4(F)F)C3=O)noc2c1 [Example 199, N-{(4aR,6R)-2-[4-(2,6-difluorophenyl)-6-ethoxy-1,2-benzoxazol-3-yl]-5,5-difluoro-1-oxooctahydropyrrolo[1,2-c]pyrimidin-6-yl}methanesulfonamide]"
16,122,"CS(=O)(=O)N[C@@H]1CN2C(=O)N(c3noc4cc(C(F)F)cc(-c5c(F)cc(F)cc5F)c34)CC[C@@H]2C1(F)F [Example 200, N-{(4aR,6R)-2-[6-(difluoromethyl)-4-(2,4,6-trifluorophenyl)-1,2-benzoxazol-3-yl]-5,5-difluoro-1-oxooctahydropyrrolo[1,2-c]pyrimidin-6-yl}methanesulfonamide]"
17,114,"Cc1cc2onc(-n3cc4n(c3=O)C[C@@H](NS(=O)(=O)CF)C4(F)F)c2c(-c2c(F)cc(F)cc2F)n1 [Example 201, N-{(6R)-7,7-difluoro-2-[6-methyl-4-(2,4,6-trifluorophenyl)[1,2]oxazolo[4,5-c]pyridin-3-yl]-3-oxo-2,5,6,7-tetrahydro-3H-pyrrolo[1,2-c]imidazol-6-yl}-1-fluoromethanesulfonamide]"
18,99,"CCOc1cc2onc(N3CC[C@H]4N(C[C@@H](NS(C)(=O)=O)C4(F)F)C3=O)c2c(-c2c(F)cc(F)cc2F)c1F [Example 202, N-{(4aR,6R)-2-[6-ethoxy-5-fluoro-4-(2,4,6-trifluorophenyl)-1,2-benzoxazol-3-yl]-5,5-difluoro-1-oxooctahydropyrrolo[1,2-c]pyrimidin-6-yl}methanesulfonamide]"
19,114,"O=C1N(c2noc3cccc(-c4c(F)cc(F)cc4F)c23)CC[C@H]2N1C[C@@H](NS(=O)(=O)CF)C2(F)F [Example 203, N-{(4aR,6R)-5,5-difluoro-1-oxo-2-[4-(2,4,6-trifluorophenyl)-1,2-benzoxazol-3-yl]octahydropyrrolo[1,2-c]pyrimidin-6-yl}-1-fluoromethanesulfonamide]"
20,109,"CCS(=O)(=O)N[C@@H]1CN2C(=O)N(c3noc4ccc(F)c(-c5c(F)cc(F)cc5F)c34)CC[C@@H]2C1(F)F [Example 204, N-{(4aR,6R)-5,5-difluoro-2-[5-fluoro-4-(2,4,6-trifluorophenyl)-1,2-benzoxazol-3-yl]-1-oxooctahydropyrrolo[1,2-c]pyrimidin-6-yl}ethanesulfonamide]"
21,107,"CCS(=O)(=O)N[C@H]1C[C@H]2CCN(c3noc4cccc(-c5c(F)cc(F)cc5F)c34)C(=O)N2C1 [Example 205, N-{(4aR,6S)-1-oxo-2-[4-(2,4,6-trifluorophenyl)-1,2-benzoxazol-3-yl]octahydropyrrolo[1,2-c]pyrimidin-6-yl}ethanesulfonamide]"
22,110,"CS(=O)(=O)N[C@@H]1CN2C(=O)N(c3noc4cccc(-c5c(F)cccc5F)c34)CC[C@@H]2C1(F)F [Example 206, N-{(4aR,6R)-2-[4-(2,6-difluorophenyl)-1,2-benzoxazol-3-yl]-5,5-difluoro-1-oxooctahydropyrrolo[1,2-c]pyrimidin-6-yl}methanesulfonamide]"
23,113,"O=C1N(c2noc3ccc(F)c(-c4c(F)cc(F)cc4F)c23)CC[C@H]2N1C[C@@H](NS(=O)(=O)CF)C2(F)F [Example 207, N-{(4aR,6R)-5,5-difluoro-2-[5-fluoro-4-(2,4,6-trifluorophenyl)-1,2-benzoxazol-3-yl]-1-oxooctahydropyrrolo[1,2-c]pyrimidin-6-yl}-1-fluoromethanesulfonamide]"
